Data taken from ChEMBL document CHEMBL3525905, “Brain distribution and bioavailability of elacridar after different routes of administration in the mouse” (Drug Metab Dispos, 2012).

Tests used:
[1] = Tmax in wild type FVB mouse plasma at 2.5 mg/kg, iv; format: ADME, organism-based; parameters: dose 2.5 mg/kg, route intravenous
[2] = AUC (0 to last) in wild type FVB mouse brain at 100 mg/kg, po; format: ADME, organism-based; parameters: time 0 - last, dose 100 mg/kg, route oral
[3] = Ratio of AUC in brain to plasma in wild type FVB mouse plasma at 100 mg/kg, ip; format: ADME, organism-based; parameters: dose 100 mg/kg, route intraperitoneal; settings: brain and plasma
[4] = Cmax in wild type FVB mouse plasma at 2.5 mg/kg, iv; format: ADME, organism-based; parameters: dose 2.5 mg/kg, route intravenous
[5] = Terminal half life in wild type FVB mouse plasma at 100 mg/kg, po; format: ADME, organism-based; parameters: dose 100 mg/kg, route oral; settings: read-out: beta t1/2 (converted)
[6] = Cmax in wild type FVB mouse plasma at 100 mg/kg, po; format: ADME, organism-based; parameters: dose 100 mg/kg, route oral
[7] = AUC (0 to last) in wild type FVB mouse plasma at 2.5 mg/kg, iv; format: ADME, organism-based; parameters: time 0 - last, dose 2.5 mg/kg, route intravenous
[8] = Tmax in wild type FVB mouse brain at 100 mg/kg, po; format: ADME, organism-based; parameters: dose 100 mg/kg, route oral
[9] = AUC (0 to infinity) in wild type FVB mouse brain at 2.5 mg/kg, iv; format: ADME, organism-based; parameters: time infinity, dose 2.5 mg/kg, route intravenous
[10] = AUC (0 to last) in wild type FVB mouse plasma at 100 mg/kg, ip; format: ADME, organism-based; parameters: time 0 - last, dose 100 mg/kg, route intraperitoneal
[11] = AUC (0 to infinity) in wild type FVB mouse brain at 100 mg/kg, po; format: ADME, organism-based; parameters: time infinity, dose 100 mg/kg, route oral
[12] = Apparent oral volume of distribution in wild type FVB mouse plasma at 2.5 mg/kg, iv; format: ADME, organism-based; parameters: dose 2.5 mg/kg
[13] = Cmax in wild type FVB mouse brain at 100 mg/kg, ip; format: ADME, organism-based; parameters: dose 100 mg/kg, route intraperitoneal
[14] = Tmax in wild type FVB mouse plasma at 100 mg/kg, ip; format: ADME, organism-based; parameters: dose 100 mg/kg, route intraperitoneal
[15] = Lipophilicity, logP of the compound; format: physicochemical; settings: octanol/water
[16] = Terminal half life in wild type FVB mouse brain at 100 mg/kg, po; format: ADME, organism-based; parameters: dose 100 mg/kg, route oral; settings: read-out: beta t1/2 (converted)
[17] = Cmax in wild type FVB mouse plasma at 100 mg/kg, ip; format: ADME, organism-based; parameters: dose 100 mg/kg, route intraperitoneal
[18] = Terminal half life in wild type FVB mouse brain at 2.5 mg/kg, iv; format: ADME, organism-based; parameters: dose 2.5 mg/kg, route intravenous; settings: read-out: beta t1/2 (converted)
[19] = Cmax in wild type FVB mouse brain at 2.5 mg/kg, iv; format: ADME, organism-based; parameters: dose 2.5 mg/kg, route intravenous
[20] = Ratio of AUC in brain to plasma in wild type FVB mouse plasma at 100 mg/kg, po; format: ADME, organism-based; parameters: dose 100 mg/kg, route oral; settings: brain and plasma
[21] = Tmax in wild type FVB mouse brain at 2.5 mg/kg, iv; format: ADME, organism-based; parameters: dose 2.5 mg/kg, route intravenous
Plasma [22] = test: AUC (0 to infinity) in wild type FVB mouse plasma at 100 mg/kg, ip; format: ADME, organism-based; parameters: time infinity, dose 100 mg/kg, route intraperitoneal; settings: in vivo
[23] = Apparent plasma clearance in wild type FVB mouse at 100 mg/kg, po; format: ADME, organism-based; parameters: dose 100 mg/kg, route oral
[24] = Apparent plasma clearance in wild type FVB mouse plasma at 100 mg/kg, ip; format: ADME, organism-based; parameters: dose 100 mg/kg, route intraperitoneal
[25] = Cmax in wild type FVB mouse brain at 100 mg/kg, po; format: ADME, organism-based; parameters: dose 100 mg/kg, route oral
[26] = AUC (0 to last) in wild type FVB mouse plasma at 100 mg/kg, po; format: ADME, organism-based; parameters: time 0 - last, dose 100 mg/kg, route oral
Plasma [27] = test: Bioavailability in wild type FVB mouse at 100 mg/kg, ip; format: ADME, organism-based; settings: in vivo
[28] = Tmax in wild type FVB mouse plasma at 100 mg/kg, po; format: ADME, organism-based; parameters: dose 100 mg/kg, route oral
[29] = AUC (0 to last) in wild type FVB mouse brain at 100 mg/kg, ip; format: ADME, organism-based; parameters: time 0 - last, dose 100 mg/kg, route intraperitoneal
[30] = AUC (0 to infinity) in wild type FVB mouse brain at 100 mg/kg, ip; format: ADME, organism-based; parameters: dose 100 mg/kg, route intraperitoneal, time infinity
[31] = Apparent oral volume of distribution in wild type FVB mouse at 100 mg/kg, po; format: ADME, organism-based; parameters: dose 100 mg/kg, route oral; settings: plasma
[32] = AUC (0 to last) in wild type FVB mouse brain at 2.5 mg/kg, iv; format: ADME, organism-based; parameters: time 0 - last, dose 2.5 mg/kg, route intravenous
[33] = Terminal half life in wild type FVB mouse plasma at 2.5 mg/kg, iv; format: ADME, organism-based; parameters: dose 2.5 mg/kg, route intravenous; settings: read-out: beta t1/2 (converted)
[34] = […] Kp, ratio of AUC in brain to plasma in wild type FVB mouse plasma at 10 mg/kg, ip; format: ADME, organism-based; parameters: dose 10 mg/kg, route intraperitoneal; settings: brain and plasma
[35] = Oral bioavailability in wild type FVB mouse at 100 mg/kg; format: ADME, organism-based; settings: plasma
[36] = Terminal half life in wild type FVB mouse brain at 100 mg/kg, ip; format: ADME, organism-based; parameters: dose 100 mg/kg, route intraperitoneal; settings: read-out: beta t1/2 (converted)
Plasma [37] = test: Bioavailability in wild type FVB mouse at 2.5 mg/kg, iv; format: ADME, organism-based; settings: in vivo
[38] = Ratio of AUC in brain to plasma in wild type FVB mouse plasma at 2.5 mg/kg, iv; format: ADME, organism-based; parameters: dose 2.5 mg/kg, route intravenous; settings: brain and plasma
[39] = Apparent oral volume of distribution in wild type FVB mouse plasma at 100 mg/kg, ip; format: ADME, organism-based; parameters: dose 100 mg/kg
[40] = Tmax in wild type FVB mouse brain at 100 mg/kg, ip; format: ADME, organism-based; parameters: dose 100 mg/kg, route intraperitoneal
Plasma [41] = test: Apparent plasma clearance in wild type FVB mouse plasma at 2.5 mg/kg, iv; format: ADME, organism-based; parameters: dose 2.5 mg/kg, route intravenous; settings: in vivo
[42] = AUC (0 to infinity) in wild type FVB mouse plasma at 100 mg/kg, po; format: ADME, organism-based; parameters: time infinity, dose 100 mg/kg, route oral
Plasma [43] = test: AUC (0 to infinity) in wild type FVB mouse plasma at 2.5 mg/kg, iv; format: ADME, organism-based; parameters: time infinity, dose 2.5 mg/kg, route intravenous; settings: in vivo
[44] = Terminal half life in wild type FVB mouse plasma at 100 mg/kg, ip; format: ADME, organism-based; parameters: dose 100 mg/kg, route intraperitoneal; settings: read-out: beta t1/2 (converted)

For COc1cc2c(cc1OC)CN(CCc1ccc(NC(=O)c3cccc4c(=O)c5cccc(OC)c5[nH]c34)cc1)CC2 [ELACRIDAR], the Tmax [1] was 0.5 h, the AUC(0-t) [2] was 64800 ng·h/mL and the Kp [3] was 0.48. For the same molecule, the Cmax [4] was 564 ng/mL, the half-life [5] was 20 h and the Cmax [6] was 780 ng/mL. For the same molecule, the AUC(0-t) [7] was 2310 ng·h/mL, the Tmax [8] was 8 h and the AUC(0-inf) [9] was 2190 ng·h/mL. It also gave an AUC(0-t) [10] of 1060 ng·h/mL, an AUC(0-inf) [11] of 105000 ng·h/mL and a Vd/F [12] of 0.17 L. The Cmax [13] was 61 ng/mL, the Tmax [14] was 0.5 h and the logP [15] was 5.67. For the same molecule, the half-life [16] was 16 h, the Cmax [17] was 295 ng/mL and the half-life [18] was 1.5 h. The Cmax [19] was 1050 ng/mL, the Kp [20] was 4.31 and the Tmax [21] was 0.5 h. For the same molecule, the AUC (Plasma [22]) was 90.3 µg·min/mL, the CL/F [23] was 2.05 mL/min and the CL/F [24] was 33.2 mL/min. The Cmax [25] was 4340 ng/mL, the AUC(0-t) [26] was 13200 ng·h/mL and the F (Plasma [27]) was 13%. It also gave a Tmax [28] of 8 h, an AUC(0-t) [29] of 332 ng·h/mL and an AUC(0-inf) [30] of 725 ng·h/mL. The Vd/F [31] was 3.5 L, the AUC(0-t) [32] was 2140 ng·h/mL and the half-life [33] was 4.4 h. It also gave a Kp [34] of 0.0784, a bioavailability [35] of 22% and a half-life [36] of 9.2 h. The F (Plasma [37]) was 100%, the Kp [38] was 0.82 and the Vd/F [39] was 12.3 L. It also gave a Tmax [40] of 4 h, a CL/F (Plasma [41]) of 0.46 mL/min and an AUC(0-inf) [42] of 24300 ng·h/mL. For the same molecule, the AUC (Plasma [43]) was 161.4 µg·min/mL and the half-life [44] was 4.3 h.
